Measured values from US20250325542A1, “INHIBITORS OF ANTIMOCROBIAL RESISTANCE AND METHOS USING SAME” (Baylor College of Medicine, priority 2022, published 2025).
“Also recorded” adds a separate entry of the source. Where two headings read alike, the source gives them in different places.

Key:
[1] = target: T1, KPC-2 (Klebsiella pneumoniae, UniProt Q9F663); test: KPC-2 enzyme inhibition (Ki); type: biochemical
Source text: Several hits were identified from the qDOS38_1 library against the KPC-2 enzyme. All compounds were synthesized without linker C1a. Among the hit compounds, CDD-2312 had the highest enrichment score of 5.9 but a lower count number of 115 compared to other libraries screened at the same time.

[2] = target: T1, KPC-2; test: DNA-encoded library affinity selection against KPC-2; type: binding; conditions: qDOS38_1 library, on-DNA
[3] = test system: E. coli NDM-1/XL-1B; test: Accumulation assay in bacteria (LC-MS); type: cell-based; conditions: 50 μM compound, 10 min at 37° C.; tetracycline positive, clindamycin negative control
Experimental: Briefly, the overnight culture of E. coli NDM-1/XL-1B was inoculated into fresh Luria Bertani (LB) broth (1:100 v/v) and incubated at 37° C. with shaking to an optical density (OD600) of 0.55-0.60. The bacteria were pelleted by centrifugation and washed with 1× phosphate-buffered saline (PBS) before being re-suspended in PBS (28 times concentrated). The colony-forming units (CFUs) were determined by a calibration curve. Re-suspended cells were aliquoted into 1.5 mL Eppendorf tubes and recovered at 37° C. for 5 min. The compounds and controls were added with a final concentration of 50 μM. The mixtures were incubated at 37° C. for 10 min and the OD600 values were recorded to note the growth changes. To collect the cell pellets, 800 μL bacteria-compound mixtures were layered onto 700 μL silicone oil (9:1 v/v, AR20/Sigma High Temperature, pre-cooled at −80° C.) and bacteria were pelleted through the silicone oil by centrifugation. Cell pellets were re-suspended in 200 μL H2O and lysed using three freeze-thaw cycles of 3 min in liquid nitrogen followed by 3 min in a 65° C. water bath. Supernatants were collected after centrifuging and the cell debris was re-suspended in 100 μL methanol. The mixtures from cell debris were then centrifuged, and the methanol supernatants were combined with the supernatants from the last step before LC-MS analysis.
Two NL of supernatant was injected into a Thermo TSQ Quantis MS coupled with a Thermo Vanish UHPLC for analysis. The Phenomenex Luna C18 column (1.0 mm×50 mm, 1.7 μm) was used for resolving tested compounds with the column temperature being kept constant at 40° C. […] The compound concentrations in the samples were calculated based on their corresponding standard curves. […]
This could be partially due to the low accumulation of compounds into the periplasm and/or due to modest in vitro inhibition potency (Ki). To discern between the possibilities, the accumulation of inhibitors into bacteria was quantified using mass spectrometry. Compounds were pre-incubated with E. coli inoculum before cells were washed, lysed, and analyzed via mass spectrometry. […]

[4] = test system: A. baumanii; test: MIC of PBP-3 screening hits against A. baumanii; type: cell-based; conditions: inhibitor alone
Experimental: (§1) Similarly to KPC-2 and NDM-1, PBP-3 was screened against the β-lactamase-focused library and several hits were identified from qDOS38_2 and qDOS38_4 (Table 7). Since PBP-3 is not a β-lactamase enzyme, the inhibition assay cannot be used to determine the biochemical potency of inhibitor against PBP-3. Instead, in vivo potency was determined directly against E. coli and A. baumanii. Since all bacteria express PBP-3 naturally, other modifications to wild-type bacteria were not necessary.
(§2) Unlike β-lactamase inhibitor MIC determinations, which measure the synergy between inhibitor and antibiotic, PBP-3 inhibitor MIC determination only measures a single dimension concentration gradient of the inhibitor.

[5] = test system: E. coli; test: MIC of PBP-3 screening hits against E. coli; type: cell-based; conditions: for MIC: Escherichia coli, inhibitor alone, read-out: E. coli minimum inhibitory concentration (MIC)
Experimental: as §1, §2

[6] = target: NDM-1 (Klebsiella pneumoniae, UniProt C7C422); type: biochemical
[7] = test system: E. coli expressing NDM-1; type: cell-based; conditions: Ins = insoluble
[8] = Solubility observed in assay media; type: physicochemical

NDM-1, sequence (C7C422 whole entry, looked up, species assumed): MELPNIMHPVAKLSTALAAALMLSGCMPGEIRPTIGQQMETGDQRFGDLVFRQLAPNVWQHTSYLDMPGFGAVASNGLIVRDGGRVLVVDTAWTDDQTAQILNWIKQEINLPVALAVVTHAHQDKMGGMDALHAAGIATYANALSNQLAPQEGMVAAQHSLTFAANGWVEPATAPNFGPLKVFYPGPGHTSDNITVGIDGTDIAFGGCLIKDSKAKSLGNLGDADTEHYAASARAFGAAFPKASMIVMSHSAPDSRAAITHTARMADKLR
T1 sequence (Q9F663 whole entry, looked up, species assumed): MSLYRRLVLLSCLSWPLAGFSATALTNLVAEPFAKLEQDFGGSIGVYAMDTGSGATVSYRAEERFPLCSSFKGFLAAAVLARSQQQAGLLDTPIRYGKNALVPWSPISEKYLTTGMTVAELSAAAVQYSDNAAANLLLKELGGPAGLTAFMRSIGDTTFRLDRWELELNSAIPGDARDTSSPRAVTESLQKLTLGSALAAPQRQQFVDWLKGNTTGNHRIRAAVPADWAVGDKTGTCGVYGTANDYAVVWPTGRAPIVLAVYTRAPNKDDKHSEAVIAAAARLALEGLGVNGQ

Q: What does the source list for COc1cc(-c2cnc(NCC(=O)O)nc2)cc(C=O)c1OCC(=O)N(C)C [CDD-2312, (5-(4-(2-(dimethylamino)-2-oxoethoxy)-3-formyl-5-methoxyphenyl)pyrimidin-2-yl)glycine]?
A: Ki [1]: 657000 ± 123000 nM; enrichment score [2]: 5.9

Q: With CNCc1cccc(NCc2ccc(-c3ccc(C(=O)O)c(O)c3)o2)c1 [CDD-2376, 2-hydroxy-4-(5-(((3-((methylamino)methyl)phenyl)amino)methyl)furan-2-yl)benzoic acid] as the compound, how does the accumulation in bacteria [3] read?
A: lowest amount of accumulation; also recorded: lowest of all three compounds tested and comparable to that of the negative control

Q: Which “effect against A. baumanii” value [4] does the source give for Nc1cccc(NCc2ccc(-c3cncc(C(=O)O)c3)cc2)c1 [CDD-2396, 5-(4-(((3-aminophenyl)amino)methyl)phenyl)nicotinic acid] here?
A: Neither of the compounds had any significant effect

Q: And the MIC [5]?
A: 256 µg/mL

Q: Which “effect against A. baumanii” value [4] does the source give for NC(Cc1ccc(O)c(O)c1)C(=O)NCCc1ccccc1 (centres unmarked) [CDD-2507, 2-amino-3-(3,4-dihydroxyphenyl)-N-phenethylpropanamide] here?
A: Neither of the compounds had any significant effect

Q: What about the “growth of bacteria below the MIC” value ([5]; 16 μg/mL, E. coli) of the same compound?
A: slower growth of bacteria

Q: And the MIC [5]?
A: 128 µg/mL

Q: For NCc1cccc(NCc2cccc(-c3ccc(C(=O)O)c(O)c3)c2)c1 [CDD-2616, 3′-(((3-(aminomethyl)phenyl)amino)methyl)-3-hydroxy-[1,1′-biphenyl]-4-carboxylic acid], which Ki [6] is on record?
A: 900 ± 440 nM

Q: And the “NDM-1 Ki (μM)” value [6]?
A: sub-micromolar inhibition potency

Q: What about the accumulation in bacteria [3] of the same compound?
A: comparable to that of the positive control

Q: For NCc1cccc(NCc2cccc(-c3ccc(C(=O)O)c(O)c3)n2)c1 [CDD-2653, 4-(6-(((3-(aminomethyl)phenyl)amino)methyl)pyridin-2-yl)-2-hydroxybenzoic acid], which accumulation in bacteria [3] is on record?
A: much higher

Q: What does the source list for Cc1cc(CNc2cccc(CN)c2)cc(-c2ccc(C(=O)O)c(O)c2)c1 [CDD-2997, 3′-(((3-(aminomethyl)phenyl)amino)methyl)-3-hydroxy-5′-methyl-[1,1′-biphenyl]-4-carboxylic acid]?
A: Imipenem MIC (μg/mL) ([7]; [inhibitor] 64 μg/mL): Ins; Imipenem MIC (μg/mL) ([7]; [inhibitor] 128 μg/mL): Ins; Ki [6]: 530 ± 370 nM; solubility in aqueous solution ([8]; MIC medium, above 64 μg/mL): low solubility in aqueous solution; solubility in buffer ([8]; at the accumulation assay concentration (50 μM)): low solubility in buffer
